Laboratory results reported in the NIST ThermoML archive (doi:10.1021/je0498208).

Test: xn = mol fraction of the nth substance listed
Conditions: Liquid; for viscosity: 101 kPa; for mass density: 101.3 kPa

O=CN1CCOCC1 [N-formylmorpholine] + O
Conditions	mass density [kg/m3]	viscosity [mPa·s]
298.15 K, x1 = 0.0499	1038.7	1.45
298.15 K, x1 = 0.1007	1067.03	2.22
298.15 K, x1 = 0.1976	1099.55	3.82
298.15 K, x1 = 0.3006	1117.88	5.05
298.15 K, x1 = 0.3917	1127.34	5.95
298.15 K, x1 = 0.5001	1134.34	6.53
298.15 K, x1 = 0.5834	1137.94	6.81
298.15 K, x1 = 0.6969	1141.28	7.25
298.15 K, x1 = 0.7942	1143.43	7.27
298.15 K, x1 = 0.9047	1145.19	7.53
298.15 K, x1 = 0.9493	1145.97	7.7
298.15 K, x1 = 1	1146.62	7.87
303.15 K, x1 = 0.0499	1036.24	1.29
303.15 K, x1 = 0.1007	1063.95	1.85
303.15 K, x1 = 0.1976	1095.78	3.33
303.15 K, x1 = 0.3006	1113.82	4.31
303.15 K, x1 = 0.3917	1123.11	5.04
303.15 K, x1 = 0.5001	1130.03	5.54
303.15 K, x1 = 0.5834	1133.6	5.79
303.15 K, x1 = 0.6969	1136.91	6.02
303.15 K, x1 = 0.7942	1139.05	6.21
303.15 K, x1 = 0.9047	1140.81	6.46
303.15 K, x1 = 0.9493	1141.6	6.62
303.15 K, x1 = 1	1142.26	6.75
313.15 K, x1 = 0.0499	1030.93	1.038
313.15 K, x1 = 0.1007	1057.44	1.52
313.15 K, x1 = 0.1976	1088.06	2.44
313.15 K, x1 = 0.3006	1105.52	3.23
313.15 K, x1 = 0.3917	1114.62	3.77
313.15 K, x1 = 0.5001	1121.35	4.19
313.15 K, x1 = 0.5834	1124.87	4.33
313.15 K, x1 = 0.6969	1128.16	4.55
313.15 K, x1 = 0.7942	1130.3	4.7
313.15 K, x1 = 0.9047	1132.07	4.9
313.15 K, x1 = 0.9493	1132.87	5.03
313.15 K, x1 = 1	1133.53	5.13
323.15 K, x1 = 0.0499	1025.15	0.854
323.15 K, x1 = 0.1007	1050.64	1.23
323.15 K, x1 = 0.1976	1080.16	1.95
323.15 K, x1 = 0.3006	1097.1	2.5
323.15 K, x1 = 0.3917	1105.98	2.88
323.15 K, x1 = 0.5001	1114.62	3.21
323.15 K, x1 = 0.5834	1116.08	3.35
323.15 K, x1 = 0.6969	1119.37	3.53
323.15 K, x1 = 0.7942	1121.52	3.67
323.15 K, x1 = 0.9047	1123.33	3.86
323.15 K, x1 = 0.9493	1124.14	4.01
323.15 K, x1 = 1	1124.82	4.03
333.15 K, x1 = 0.0499	1018.01	0.715
333.15 K, x1 = 0.1007	1043.55	1.018
333.15 K, x1 = 0.1976	1072.05	1.57
333.15 K, x1 = 0.3006	1088.55	2.1
333.15 K, x1 = 0.3917	1097.24	2.41
333.15 K, x1 = 0.5001	1103.8	2.65
333.15 K, x1 = 0.5834	1107.26	2.73
333.15 K, x1 = 0.6969	1110.55	2.84
333.15 K, x1 = 0.7942	1112.72	2.96
333.15 K, x1 = 0.9047	1114.57	3.2
333.15 K, x1 = 0.9493	1115.4	3.21
333.15 K, x1 = 1	1116.11	3.25
343.15 K, x1 = 0.0499	1011.38	0.67
343.15 K, x1 = 0.1007	1036.08	0.857
343.15 K, x1 = 0.1976	1063.72	1.27
343.15 K, x1 = 0.3006	1079.83	1.8
343.15 K, x1 = 0.3917	1088.36	2.05
343.15 K, x1 = 0.5001	1094.88	2.26
343.15 K, x1 = 0.5834	1098.33	2.33
343.15 K, x1 = 0.6969	1101.67	2.37
343.15 K, x1 = 0.7942	1103.88	2.52
343.15 K, x1 = 0.9047	1105.79	2.67
343.15 K, x1 = 0.9493	1106.66	2.67
343.15 K, x1 = 1	1107.39	2.68
